Experimental data reported in US20230041271A1, “Mitochondria-Targeted Polypeptide, Preparation Method thereof, and Use thereof” (Shenzhen Campus of Sun Yat-sen University, priority 2021, published 2023).
Square brackets hold non-standard residues; d marks the D form. Peptide text beside a SMILES is read from it. * marks the point of attachment. X2 = COc1cccc2c1C(=O)c1c(O)c3c(c(O)c1C2=O)C[C@@](O)(C(=O)CO)C[C@@H]3O[C@H]1C[C@H](NC(=O)OCCSSCCOC(=O)*)[C@H](O)[C@H](C)O1; 2Nal = N[C@@H](Cc1ccc2ccccc2c1)C(=O)O; d2Nal = N[C@H](Cc1ccc2ccccc2c1)C(=O)O; X1 = O=C1NC2CS[C@@H](CCCCC(=O)*)C2N1

How the values were obtained:
Hela cells [1] = experiment: Drug release test of prodrug 17 in cells (fluorescence imaging); format: cell-based; settings: for localization in the cells: HeLa cells
Experimental: Hela cells were cultured in an 8-well imaging dish and then treated with prodrug 17 (1 μM) for a certain time (1 h, 2 h, 3 h and 5 h). After the culture medium was removed, the cells were washed with PBS, a fresh culture medium was used for replacement, and the treated cells were then photographed by a fluorescence microscope. In addition, the cells were directly co-incubated with compound 17 (1 μM) for 1 h and then incubated with exogenous GSH (2 mM) for another 1 h (totally 2 h of incubation with compound 17); the cells were pretreated with the GSH inhibitor BSO (5 mM) for 24 h and then incubated with compound 17 (1 μM) for 3 h; and the cells were pre-incubated with a tumor-targeted biotin ligand at various concentrations (1 mM or 2 mM) for 1 h and then co-incubated with compound 17 for 3 h. After the culture medium was removed, the cells were washed with PBS, a fresh culture medium was used for replacement, and a fluorescence microscope was then used to take an image, which was used as the control.

[2] = tested on: mitochondria of HeLa cells; experiment: Mitochondrial co-localization confocal imaging with MitoTracker Deep Red; format: cell-based; settings: for co-localization coefficient with the commercial mitochondrial dye (MitoTracker Deep Red): HeLa cells, confocal imaging, 50 nM MitoTracker Deep Red
Experimental: The synthesized mitochondria-targeted fluorescent probes were analyzed by confocal imaging to detect the effect of the arginine number on the mitochondrial localization thereof.
Experimental method: Solid powders of mitochondria-targeted fluorescent probes 8-12 synthesized in Example 3 were dissolved in DMSO to prepare 2 mM test mother solutions, and HeLa cells were cultured in a culture medium (DMEM: FBS: penicillin-streptomycin dual antibody=9:1:0.1). The cells were inoculated in an 8-well imaging dish and cultured in a cell incubator containing 5% CO2 at 37° C. until the cell density reached 60%. After the culture medium was removed, the cells were incubated with the target compound for a specified time. The culture medium was then removed, and wash with PBS was conducted three times. Thereafter, 50 nM commercial mitochondrial probe MitoTracker Deep Red (50 nM) was further added to the culture dish for 15 minutes of continuous incubation. After the culture medium was removed, wash with PBS was conducted three times. Imaging on confocal microscope was then carried out. Blue channel tracker 1 was set, with the excitation wavelength being 405 nm and the emission band being 420-490 nm, and this channel was used to receive fluorescence emitted by the mitochondria-targeted peptide. Red channel tracker 2 was set, with the excitation wavelength being 640 nm and the emission band being 655-755 nm, and this channel was used to receive fluorescence emitted by MitoTracker Deep Red, a commercial mitochondrial dye. In addition, in a cell imaging experiment, green channel tracker 3 was set, with the excitation wavelength being 560 nm and the emission band being 580-620 nm, and this channel was used to receive fluorescence emitted by compound 13. Green channel tracker 4 was set, with the excitation wavelength being 488 nm and the emission band being 500-600 nm, and this channel was used to receive fluorescence emitted by compound 14.

Hela cells [3] = experiment: Determination of mitochondrial membrane potential MMP (JC-10 dye); format: cell-based; settings: 0-10 μM, 24 hours
Experimental: Cells were inoculated in a 384-well plate with a black transparent bottom and then cultured overnight in a cell incubator containing 5% CO2 at 37° C., and the cells were treated with prodrug 17 at a specified concentration for 24 hours. An MMP kit (JC-10 dye, MAK-160) was then used for treatment and measurement according to the test method as provided, wherein apoptotic/damaged cells were monitored using λex=490 nm and λem=525 nm, and normal cells were monitored using λex=540 nm and λem=590 nm.

normal CHO cells = experiment: Cytotoxicity test (MTT) on normal cells; format: cell-based; settings: various concentrations, 48 h
Experimental: (§1) Cells were inoculated in a 96-well plate and cultured overnight in a cell incubator containing 5% CO2 at 37° C. The cells were treated with prodrug 17 at various concentrations and cultured in a cell incubator containing 5% CO2 at 37° C. for 48 h. A commercial MTT assay kit was then used to measure the cell viability. The experiment was repeated three times, and the data were analyzed by GraphPad Prism 6.0 software.

HeLa tumor cells = experiment: Cytotoxicity test (MTT) on tumor cells; format: cell-based; settings: various concentrations, 48 h
Experimental: as §1

Hela cells [4] = experiment: Apoptosis detection (Annexin V-PE, flow cytometry); format: cell-based; settings: various concentrations, 24 h
Experimental: Cells were inoculated in a 35 mm culture dish. After culture overnight at 37° C., the cells were treated with prodrug 17 at a specified concentration for 24 h. The cells were then collected, rinsed with PBS, resuspended in 500 μL of 1×buffer, and quantitatively measured by a flow cytometer according to a method given by the apoptosis kit Annexin V-PE.

[5] = Drug release and stability test of prodrug 17 in PBS solution with or without GSH (fluorescence, HPLC, ESI-MS); format: physicochemical
Experimental: Prodrug 17 (5 mM stock solution in DMSO) was diluted with PBS to form a solution at an indicated concentration and then incubated at 37° C. with a glutathione (GSH) solution at a specified concentration (0-12 mM GSH for concentration-dependent study and 10 mM GSH for time-dependent study), and the fluorescence of the treated sample was monitored periodically at specific time points. The change in the fluorescence intensity of the sample reflected the drug release behavior of prodrug 17 under GSH activation. In addition, a chromatogram was detected by high performance liquid chromatography after co-incubation of prodrug 17 (20 μM) with GSH (10 mM) in a PBS solution at 37° C. for 6 h, and a mass spectrum of the reaction solution was detected by ESI-MS.

For `COc1cccc2c1C(=O)c1c(O)c3c(c(O)c1C2=O)C[C@@](O)(C(=O)CO)C[C@@H]3O[C@H]1C[C@H](N)[C@H](O)[C@H](C)O1` [Dox, doxorubicin, reference compound], the “localization in the cells” value (Hela cells [1]; 1 μM, fluorescence imaging) was “mainly located in the nucleus”.

With “Ac-Arg-Arg-Arg-L-Nal-D-Nal-Gly-Gly-Lys [MTP3]” the “co-localization coefficient with the commercial mitochondrial dye (MitoTracker Deep Red)” value [2] was 0.84 and the “co-localization coefficient with the commercial fluorescent probe after long co-incubation” value ([2]; after co-incubation with cells for up to 36 h) was 0.70.

For “Ac-Arg-Arg-L-Nal-D-Nal-Gly-Gly-Lys [MTP2]”, the “co-localization coefficient with the commercial mitochondrial dye (MitoTracker Deep Red)” value [2] was 0.65.

In the case of `COc1cccc2c1C(=O)c1c(O)c3c(c(O)c1C2=O)C[C@@](O)(C(=O)CO)C[C@@H]3O[C@H]1C[C@H](NC(=O)OCCSSCCOC(=O)NCCCC[C@H](NC(=O)CNC(=O)CNC(=O)[C@@H](Cc2ccc3ccccc3c2)NC(=O)[C@H](Cc2ccc3ccccc3c2)NC(=O)[C@H](CCCNC(=N)N)NC(=O)[C@H](CCCNC(=N)N)NC(=O)[C@H](CCCNC(=N)N)NC(=O)CCCC[C@@H]2SCC3NC(=O)NC32)C(N)=O)[C@H](O)[C@H](C)O1` (some centres unmarked) [prodrug 17] (X1-RRR[2Nal][d2Nal]GGK(X2)-NH2), the “uptake by and release in HeLa cells” value (Hela cells [1]; 1 μM, 1-5 h, fluorescence imaging) is reported as “slowly taken up”, the “cell fluorescence after pre-incubation with the GSH inhibitor BSO” value (Hela cells [1]; BSO 5 mM 24 h, then 1 μM for 3 h) is reported as “almost no fluorescence” and the “localization in the cells” value (Hela cells [1]; 1 μM, fluorescence imaging) is reported as “mainly located in mitochondria”. For the same molecule, the “mitochondrial membrane potential change” value (Hela cells [3]) was “remarkable reduction in mitochondrial membrane potential”, the “toxicity to normal cells (CHO cells)” value (normal CHO cells) was “almost no toxicity” and the “anti-tumor activity (cell viability of HeLa cells)” value (HeLa tumor cells) was “strong anti-tumor activity”. For the same molecule, the induction of apoptosis (Hela cells [4]) was “induce cell death through cell apoptosis”, the “time at which fluorescence (drug release) reached the maximum value” ([5]; 37° C., 10 mM GSH, PBS) was “about 8 hours” and the “stability in PBS solution” value ([5]; PBS solution at 37° C. for 7 days, HPLC) was “no obvious compound degradation”. The “GSH-responsive release detected by HPLC and ESI-MS” value ([5]; prodrug 20 μM, GSH 10 mM, PBS, 37° C., 6 h) was “released Dox and mitochondria-targeted peptide 16 could be clearly detected” and the “mitochondrial targeting (co-localization imaging)” value ([2]; 1 μM in HeLa cells) was “excellent mitochondrial targeting properties”.

With “Ac-Arg-Arg-Arg-Arg-Arg-L-Nal-D-Nal-Gly-Gly-Lys [MTPS]” the “co-localization coefficient with the commercial mitochondrial dye (MitoTracker Deep Red)” value [2] was 0.54.

In the case of “Ac-Arg-Arg-Arg-Arg-L-Nal-D-Nal-Gly-Gly-Lys [MTP4]”, the “co-localization coefficient with the commercial mitochondrial dye (MitoTracker Deep Red)” value [2] is reported as 0.68.
